# In US20150176022A1, “HERBICIDE-RESISTANT SUNFLOWER PLANTS, POLYNUCLEOTIDES ENCODING HERBICIDE=RESISTANT ACETO HYDROXY ACID SYNTHASE LARGE SUBUNIT PROTEINS, AND METHODS OF USE” (priority 2013, published 2015):
# Columns and labels:
# Format in all cases: in vivo, Helianthus annuus
# [1] = tested on: Clearfield-Sunflower variety A; experiment: Greenhouse spray test, injury rating (Example 5); conditions: Imazapyr 240 gm ai/ha, 14 DAT, scale 0=no injury to 9=dead plant
# From the text: (§1) Sunflower lines S4897, Clearfield® sunflower varieties A, B, C and a conventional non-Clearfield variety were sprayed with three rates of imazamox (Raptor™), 100, 200 and 300 gm ai/ha plus 0.5% Sun It II and two rates of imazapyr (Arsenal™) 160 and 360 gm ai/ha plus 0.5% Sun It II when the plants were at the two to three leaf stage. Ratings were taken at 14 days after application (DAT) for injury. Injury was rated on a scale from 0 to 9 where 0=no injury to 9=dead plant. Twelve plants were sprayed per herbicide/rate treatment. Statistical analysis was conducted with STATGRAPHICS Plus 5.0 by using ANOVA and LSD procedures.
# (§2) After plants were sprayed, it was realized that a height difference between S4897 and other sunflower varieties would have impacted the actual herbicide dose that was delivered. The spray boom height had been calibrated against S4897 and since the other varieties were taller and closer to the boom they would have received a greater dose of herbicide. Rates were recalibrated for the other varieties to determine the approximate dose they would have received. Assessments were made as presented in Table 2 since it was not possible to make a direct rate comparison due to the effect of the height. For example injury scores were compare for S4897 treated imazamox rate 100 gm ai/ha to the other varieties treated at 75 gm ai/ha. The treatment dose of 300 gm ai/ha for line S4897 was equivalent to the treatment of 200 gm ai/ha for the other varieties, which […].
# [2] = tested on: Clearfield-Sunflower variety B; experiment: Greenhouse spray test, injury rating (Example 5); conditions: Imazapyr 240 gm ai/ha, 14 DAT, scale 0=no injury to 9=dead plant
# From the text: as §1, §2
# [3] = tested on: Clearfield-Sunflower variety C; experiment: Greenhouse spray test, injury rating (Example 5); conditions: Imazapyr 240 gm ai/ha, 14 DAT, scale 0=no injury to 9=dead plant
# From the text: as §1, §2
# [4] = tested on: Conventional non-Clearfield sunflower variety; experiment: Greenhouse spray test, injury rating (Example 5); conditions: Imazapyr 240 gm ai/ha, 14 DAT, scale 0=no injury to 9=dead plant
# From the text: as §1, §2
# Sunflower line S4897 = experiment: Greenhouse spray test, injury rating (Example 5); conditions: Imazapyr 360 gm ai/ha, 14 DAT, scale 0=no injury to 9=dead plant
# From the text: as §1, §2
# [5] = tested on: sunflower GM40 (Manteiner Line, A122T); experiment: Greenhouse whole-plant imazapir dose response (Example 8); conditions: 14 DAT
# Experimental: (§3) A greenhouse study was conducted to quantify and contrast the imazapir sensitivity of the mutants A122T and A205V in different genetic backgrounds at the whole plant level in sunflower. Seeds of the different sunflower lines that were used in this study were obtained under field conditions.
# (§4) Seeds were sown in Petri dishes and, after germination, plantlets were transplanted to pots of 10 cm of diameter in a potting media consisting of equal parts of vermiculite, soil and sand. Plants were grown in a greenhouse under natural light conditions supplemented with 400 W sodium halide lamps to provide a 16 hrs daylength. Day/night temperatures were 25 and 20° C., respectively. At the V2 stage 10 plants of each genotype were randomly assigned to each treatment consisting of […] imazapir doses (0, 40, 80, 160, 240, 320, 400 and 480 g ai/ha), and a zero-time biomass determination. Experiment was arranged as a randomized block design with a full factorial (sunflower line×treatment) arrangement of treatments and 10 replications.
# (§5) On the day of herbicide application ten plants of each genotype were cut at the cotyledonal node and dried at 60° C. for 48 hrs zero-time for dried weight determination. […] Height was determined as the distance between the cotyledonal node and the apex of each plant. For root biomass determination, each plant was taken from the pot and the potting media was washed out from the roots. Above ground biomass data from each line were converted to biomass accumulation after application by subtracting the appropriate average zero-time biomass from each sample. Dry biomass data were converted to percentages of the untreated control plants within each line to allow direct comparisons between groups.
# [6] = tested on: sunflower TH11 (Hybrid, A122T); experiment: as above; conditions: 14 DAT
# Experimental: as §3, §4, §5
# [7] = tested on: sunflower TH6 (Hybrid, A122T); experiment: as above; conditions: 14 DAT
# Experimental: as §3, §4, §5
smiles,measurement,setting,value
"CC(C)C1(C)N=C(c2ncccc2C(=O)O)NC1=O (centres unmarked) [imazapir, imazapyr]",Injury,[1],5.0 c
same,Injury,[2],4.3 b
same,Injury,[3],4.9 c
same,Injury,[4],8.2 days
same,Injury,Sunflower line S4897; listed as Imazapyr,0.8 a
same,Injury,Sunflower line S4897; listed as imazapyr,very little injury
same,"biomass accumulation (dry biomass, % of untreated)",[5]; 0.5× (40 g ai/ha),96.5%
same,plant height (% of untreated),[5]; 0.5× (40 g ai/ha),99.6%
same,root dry weight (% of untreated),[5]; 0.5× (40 g ai/ha),100%
same,"biomass accumulation (dry biomass, % of untreated)",[5]; 1× (80 g ai/ha),94.1%
same,plant height (% of untreated),[5]; 1× (80 g ai/ha),97.4%
same,root dry weight (% of untreated),[5]; 1× (80 g ai/ha),100%
same,"biomass accumulation (dry biomass, % of untreated)",[5]; 2× (160 g ai/ha),97.6%
same,plant height (% of untreated),[5]; 2× (160 g ai/ha),95.2%
same,root dry weight (% of untreated),[5]; 2× (160 g ai/ha),100%
same,"biomass accumulation (dry biomass, % of untreated)",[5]; 3× (240 g ai/ha),95.8%
same,plant height (% of untreated),[5]; 3× (240 g ai/ha),93.0%
same,root dry weight (% of untreated),[5]; 3× (240 g ai/ha),92.2%
same,"biomass accumulation (dry biomass, % of untreated)",[5]; 4× (320 g ai/ha),88.3%
same,plant height (% of untreated),[5]; 4× (320 g ai/ha),93.0%
same,root dry weight (% of untreated),[5]; 4× (320 g ai/ha),96.1%
same,"biomass accumulation (dry biomass, % of untreated)",[5]; 5× (400 g ai/ha),85.6%
same,plant height (% of untreated),[5]; 5× (400 g ai/ha),93.9%
same,root dry weight (% of untreated),[5]; 5× (400 g ai/ha),84.2%
same,"biomass accumulation (dry biomass, % of untreated)",[5]; 6× (480 g ai/ha),76.8%
same,plant height (% of untreated),[5]; 6× (480 g ai/ha),84.3%
same,root dry weight (% of untreated),[5]; 6× (480 g ai/ha),74.3%
same,Phytotoxicity Index,[6]; 0.5× (40 g ai/ha),0.4
same,"biomass accumulation (dry biomass, % of untreated)",[6]; 0.5× (40 g ai/ha),96.6%
same,plant height (% of untreated),[6]; 0.5× (40 g ai/ha),100.4%
same,root dry weight (% of untreated),[6]; 0.5× (40 g ai/ha),100%
same,Phytotoxicity Index,[6]; 1× (80 g ai/ha),0.4
same,"biomass accumulation (dry biomass, % of untreated)",[6]; 1× (80 g ai/ha),93.9%
same,plant height (% of untreated),[6]; 1× (80 g ai/ha),99.9%
same,root dry weight (% of untreated),[6]; 1× (80 g ai/ha),99.0%
same,Phytotoxicity Index,[6]; 2× (160 g ai/ha),0.4
same,"biomass accumulation (dry biomass, % of untreated)",[6]; 2× (160 g ai/ha),81.6%
same,plant height (% of untreated),[6]; 2× (160 g ai/ha),92.0%
same,root dry weight (% of untreated),[6]; 2× (160 g ai/ha),86.1%
same,Phytotoxicity Index,[6]; 3× (240 g ai/ha),0.5
same,"biomass accumulation (dry biomass, % of untreated)",[6]; 3× (240 g ai/ha),75.8%
same,plant height (% of untreated),[6]; 3× (240 g ai/ha),90.5%
same,root dry weight (% of untreated),[6]; 3× (240 g ai/ha),81.5%
same,Phytotoxicity Index,[6]; 4× (320 g ai/ha),1.0
same,"biomass accumulation (dry biomass, % of untreated)",[6]; 4× (320 g ai/ha),75.0%
same,plant height (% of untreated),[6]; 4× (320 g ai/ha),90.8%
same,root dry weight (% of untreated),[6]; 4× (320 g ai/ha),72.6%
same,Phytotoxicity Index,[6]; 5× (400 g ai/ha),2.0
same,"biomass accumulation (dry biomass, % of untreated)",[6]; 5× (400 g ai/ha),60.1%
same,plant height (% of untreated),[6]; 5× (400 g ai/ha),84.4%
same,root dry weight (% of untreated),[6]; 5× (400 g ai/ha),68.9%
same,Phytotoxicity Index,[6]; 6× (480 g ai/ha),2.5
same,"biomass accumulation (dry biomass, % of untreated)",[6]; 6× (480 g ai/ha),59.6%
same,plant height (% of untreated),[6]; 6× (480 g ai/ha),84.4%
same,root dry weight (% of untreated),[6]; 6× (480 g ai/ha),45.3%
same,Phytotoxicity Index,[7]; 0.5× (40 g ai/ha),0.5
same,"biomass accumulation (dry biomass, % of untreated)",[7]; 0.5× (40 g ai/ha),100%
same,plant height (% of untreated),[7]; 0.5× (40 g ai/ha),99.2%
same,root dry weight (% of untreated),[7]; 0.5× (40 g ai/ha),100%
same,Phytotoxicity Index,[7]; 1× (80 g ai/ha),0.5
same,"biomass accumulation (dry biomass, % of untreated)",[7]; 1× (80 g ai/ha),97.2%
same,plant height (% of untreated),[7]; 1× (80 g ai/ha),98.6%
same,root dry weight (% of untreated),[7]; 1× (80 g ai/ha),98.1%
same,Phytotoxicity Index,[7]; 2× (160 g ai/ha),0.5
same,"biomass accumulation (dry biomass, % of untreated)",[7]; 2× (160 g ai/ha),97.9%
same,plant height (% of untreated),[7]; 2× (160 g ai/ha),100.3%
same,root dry weight (% of untreated),[7]; 2× (160 g ai/ha),96.2%
same,Phytotoxicity Index,[7]; 3× (240 g ai/ha),0.5
same,"biomass accumulation (dry biomass, % of untreated)",[7]; 3× (240 g ai/ha),98.2%
same,plant height (% of untreated),[7]; 3× (240 g ai/ha),99.6%
same,root dry weight (% of untreated),[7]; 3× (240 g ai/ha),79.3%
same,Phytotoxicity Index,[7]; 4× (320 g ai/ha),0.5
same,"biomass accumulation (dry biomass, % of untreated)",[7]; 4× (320 g ai/ha),97.8%
same,plant height (% of untreated),[7]; 4× (320 g ai/ha),101.0%
same,root dry weight (% of untreated),[7]; 4× (320 g ai/ha),78.4%
same,Phytotoxicity Index,[7]; 5× (400 g ai/ha),0.5
same,"biomass accumulation (dry biomass, % of untreated)",[7]; 5× (400 g ai/ha),85.1%
same,plant height (% of untreated),[7]; 5× (400 g ai/ha),87.0%
same,root dry weight (% of untreated),[7]; 5× (400 g ai/ha),85.8%
same,Phytotoxicity Index,[7]; 6× (480 g ai/ha),0.5
same,"biomass accumulation (dry biomass, % of untreated)",[7]; 6× (480 g ai/ha),79.5%
same,plant height (% of untreated),[7]; 6× (480 g ai/ha),79.6%
same,root dry weight (% of untreated),[7]; 6× (480 g ai/ha),57.3%
